From patent publication US20020146679A1, “Method for creating endothelial cell dysfunction in cell culture” (priority 2001, published 2002)
Several values for one entry are separate records, joined by “and”; a condition that tells them apart may be missing. Identical values can stand only once. Entries after “also recorded” stand apart in the source; their conditions may differ.

Assays:
Type in all cases: cell-based, human
EA hy926 cells = experiment: Western blotting analysis of endothelial marker proteins
Procedure: The whole cell lysates were generated by suspending cell pellets with protein lysis buffer containing 10 mM Tris.CI (pH 7.6), 1 mM EDTA (pH 8.0), 100 mM NaCI, 1 μg/mL aprotinin, and 100 μg/mL phenylmethylsulfonyl fluoride. The lysates were sonicated for 15 seconds at output control level 4 with Sonifier 450 model manufactured by VWR Scientific products. Fifty microgram lysates protein for each sample was electrophoretically separated in 8% to 16% Tris-Glycine Gel and transferred to a nitrocellulose membrane. The proteins on the membrane were stained with PONCEAS solution to check if the proteins loading and transfer were even. The membranes were separately incubated with 5% dry milk Phosphate-buffered saline (PBS) at room temperature for 2 hours and followed by overnight incubation at 4° C. with fresh 5% dry milk PBS containing primary antibodies at 1:2000 dilution. The peroxidase conjugated secondary antibodies was diluted at 1:4000 dilution with 5% PBS buffer. The incubation with secondary antibody was carried out at room temperature for 1 hour. The membranes were then subject to staining with ECL solution and exposure to films.

[1] = system: EA.hyb926 Endothelial Cells; experiment: Gene expression by Affymetrix gene chip profiling
Procedure: Control cells were treated with vehicle for the same times and RNA isolated as above. Transcript integrity was monitored using denaturing agarose gel electrophoresis in 1X MOPS. Biotinylated target RNA was prepared from 15 μg of total RNA using the Affymetrix protocol. Briefly, double-stranded cDNA was prepared from the RNA template using a modified oligo-dT primer containing a 5′ T7 RNA polymerase promoter sequence and the Superscript Choice System for cDNA Synthesis (Life Technologies Inc., Gaithersburg, Md.). Following phenol-chloroform extraction and ethanol precipitation, one-half of the cDNA reaction (0.5-1.0 μg) was used as template in an in vitro transcription reaction containing T7 RNA polymerase, a mixture of unlabeled ATP, CTP, GTP, and UTP, and biotin-11-CTP and biotin-16-UTP (BioArray High Yield Kit, ENZO, Inc.). The resulting biotinylated-cRNA “target” was purified on an affinity resin (RNeasy, Qiagen) and quantified using the convention that 1 O.D. Two-hundred sixty corresponds to 40 μg/mL of RNA. Typical yields ranged from 50 to 100 μg with transcript sizes between […] as determined by gel electrophoresis. Fifteen micrograms of biotinylated cRNA was randomly fragmented to an average size of 50 nucleotides by incubating at 94° C. for 35 minutes in 40 mM TRIS-acetate, pH 8.1, 100 mM potassium acetate, and 30 mM magnesium acetate. The fragmented cRNA was hybridized in a solution containing 100 mM MES, 1 M [Na^+], 20 mM EDTA, 0.01% TWEEN 20, 50 pM of Control Oligonucleotide B2 (Affymetrix, Inc.), 0.1 mg/mL of sonicated herring sperm DNA, and 0.5 mg/mL BSA for 16 hours at 45° C. on a Human 6800 Affymetrix GeneChip. Each hybridization included a mixture of four bacterial biotinylated-RNA transcripts (BioB, BioC, BioD, and cre) spiked at 1.5, 5, 25, and 100 pM, respectively. The hybridization reactions were processed and scanned according to the standard Affymetrix protocols.
EA cells incubated with 10 ng/mL TNFα(with 5% FBS) for 6 hours (short-term) or 6 days (chronic exposure) were evaluated for identification of cytokine-responsive endothelial genes. […] In addition, ecNOS expression was reduced 4-fold from control, consistent with the western and northern blot data (FIGS. 6 and 7).

[2] = system: EA hy926 endothelial cells; experiment: Tube formation assay on MATRIGEL (in vitro angiogenesis)
Procedure: According to an aspect of the invention, EA hy926 (EA) cells are initially grown in standard endothelial cell culture medium consisting of MCDB 131 (Clonetics Corp.) supplemented with 10 fetal bovine serum (FBS) (Hyclone laboratories), 100 U/mL penicillin/streptomycin, 50 μg/mL gentamicin, and other endothelial growth supplements (EGM bullet kit, Clonetics Corp.). […] Cells were grown in these conditions for 6 to 7 days. EA cells are then dispersed by trypsinization, counted, suspended in EGM media containing […], and plated onto the surface of a MATRIGEL® basement membrane protein matrix (0.5 mL/well, dispensed into 24-well tissue culture plates according to the manufacturer's instructions) at a density of 5×10^5 cells per well (24 well plate). The cells were then placed in a CO2 incubator at 37° C. and observed over a 16- to 24-hour period for cell differentiation into tube-like structures resembling capillaries. […]
EBM medium and its supplement were purchased from Clonetics. […] EA cells were then dispersed by trypsinization, counted, suspended in EGM media containing 10% FBS, and plated onto the surface of a MATRIGEL® basement membrane matrix (0.5 mL/well, dispensed into 24-well tissue culture plates according to the manufacturer's instructions) at a density of 5×10^5 cells per well (24-well plate). […]

[3] = 6-day (chronic) TNFα treatment, 5% FBS
[4] = SNAP 200 μM co-incubated with TNFα for 6 days

TNFα
CD31 protein expression (EA hy926 cells; [3]): increased
PAI-1 protein expression (EA hy926 cells; [3]): increased
VCAM-1 protein expression (EA hy926 cells; [3]): increased
caveolin-1 protein expression (EA hy926 cells; [3]): increased
ecNOS protein expression (EA hy926 cells; [3]): markedly decreased
ecNOS expression reduced from control ([1]; 6 day TNFα treatment, 10 ng/mL with 5% FBS): 4 fold
Short- (6 hr Tx) Fold Increase: MCP-1 ([1]; TNFα 6 hr, accession HG4069): 4.5 Fold
Short- (6 hr Tx) Fold Increase: Type IV collagenase ([1]; TNFα 6 hr, accession J05070): 4.7 Fold
Short- (6 hr Tx) Fold Increase: GM-CSF ([1]; TNFα 6 hr, accession M13207): 23.0 Fold
Short- (6 hr Tx) Fold Increase: Vitronectin ([1]; TNFα 6 hr, accession M14648): 4.3 Fold
Short- (6 hr Tx) Fold Increase: RANTES ([1]; TNFα 6 hr, accession M21121): 39.5 Fold
Short- (6 hr Tx) Fold Increase: Interleukin-8 ([1]; TNFα 6 hr, accession M28130): 4.6 Fold
Short- (6 hr Tx) Fold Increase: TNF-Inducible, CD44 adhesion receptor ([1]; TNFα 6 hr, accession M31165): 2.7 Fold
Short- (6 hr Tx) Fold Increase: NFkB1 (p105) ([1]; TNFα 6 hr, accession M58603): 4.4 Fold
Short- (6 hr Tx) Fold Increase: A20: TNFα-inducible transcription factor ([1]; TNFα 6 hr, accession M59465): 6.5 Fold
Short- (6 hr Tx) Fold Increase: VCAM-1 ([1]; TNFα 6 hr, accession M60335): 32 Fold and 32.3 Fold
Short- (6 hr Tx) Fold Increase: ecNOS (NOS 3) ([1]; TNFα 6 hr, accession M93718, nc = no change from vehicle treated): did not affect
Short- (6 hr Tx) Fold Increase: HIF-1 α ([1]; TNFα 6 hr, accession U22431): 4.6 Fold
Short- (6 hr Tx) Fold Increase: VEGF C ([1]; TNFα 6 hr, accession U43142): 7.8 Fold
Short- (6 hr Tx) Fold Increase: Hiapl ([1]; TNFα 6 hr, accession U45878): 17.7 Fold
Short- (6 hr Tx) Fold Increase: Prointerleukin-1β ([1]; TNFα 6 hr, accession X04500): 42.2 Fold
Short- (6 hr Tx) Fold Increase: Manganese superoxide dismutase ([1]; TNFα 6 hr, accession X07834): 13.1 Fold
Short- (6 hr Tx) Fold Increase: Macrophage inflammatory protein2-β ([1]; TNFα 6 hr, accession X53800): 11.2 Fold
Short- (6 hr Tx) Fold Increase: Integrin, αV subunit (vitronectin receptor) ([1]; TNFα 6 hr, accession X68742): 4.3 Fold
Short- (6 hr Tx) Fold Increase: MT-MMP ([1]; TNFα 6 hr, accession X83535): 4.3 Fold
Chronic- (6 day Tx) Fold Increase: MCP-1 ([1]; TNFα 6 day, accession HG4069): 8.7 Fold
Chronic- (6 day Tx) Fold Increase: Type IV collagenase ([1]; TNFα 6 day, accession J05070): 27.2 Fold
Chronic- (6 day Tx) Fold Increase: Von Willebrand factor ([1]; TNFα 6 day, accession M10321): −8.3 Fold
Chronic- (6 day Tx) Fold Increase: GM-CSF ([1]; TNFα 6 day, accession M13207): 37.1 Fold
Chronic- (6 day Tx) Fold Increase: Vitronectin ([1]; TNFα 6 day, accession M14648): 6.8 Fold
Chronic- (6 day Tx) Fold Increase: RANTES ([1]; TNFα 6 day, accession M21121): 62.8 Fold
Chronic- (6 day Tx) Fold Increase: Interleukin-8 ([1]; TNFα 6 day, accession M28130): 32.6 Fold
Chronic- (6 day Tx) Fold Increase: TNF-Inducible, CD44 adhesion receptor ([1]; TNFα 6 day, accession M31165): 37.1 Fold
Chronic- (6 day Tx) Fold Increase: NFkB1 (p105) ([1]; TNFα 6 day, accession M58603): 2.9 Fold
Chronic- (6 day Tx) Fold Increase: A20: TNFα-inducible transcription factor ([1]; TNFα 6 day, accession M59465): 6.6 Fold
Chronic- (6 day Tx) Fold Increase: ecNOS (NOS 3) ([1]; TNFα 6 day, accession M93718): −3.9 Fold
Chronic- (6 day Tx) Fold Increase: TRAIL ([1]; TNFα 6 day, accession U37518): 4.8 Fold
Chronic- (6 day Tx) Fold Increase: VEGF C ([1]; TNFα 6 day, accession U43142): 27.1 Fold
Chronic- (6 day Tx) Fold Increase: Hiapl ([1]; TNFα 6 day, accession U45878): 6.9 Fold
Chronic- (6 day Tx) Fold Increase: Prointerleukin-1β ([1]; TNFα 6 day, accession X04500): 213.1 Fold
Chronic- (6 day Tx) Fold Increase: Manganese superoxide dismutase ([1]; TNFα 6 day, accession X07834): 63.4 Fold
Chronic- (6 day Tx) Fold Increase: Macrophage inflammatory protein2-β ([1]; TNFα 6 day, accession X53800): 40.6 Fold
Chronic- (6 day Tx) Fold Increase: Integrin, αV subunit (vitronectin receptor) ([1]; TNFα 6 day, accession X68742): 6.8 Fold
Chronic- (6 day Tx) Fold Increase: MCP-3 ([1]; TNFα 6 day, accession X72308): 19.9 Fold
Chronic- (6 day Tx) Fold Increase: CD95 (Fas) ([1]; TNFα 6 day, accession X83492): 4.3 Fold
Chronic- (6 day Tx) Fold Increase: MT-MMP ([1]; TNFα 6 day, accession X83535): 26.1 Fold
Chronic- (6 day Tx) Fold Increase: MCP-2 ([1]; TNFα 6 day, accession X99886): 131.7 Fold
increased expression of protective genes (superoxide dismutase, A-20, hiap-1, TRAIL, CD95) ([1]; TNFα exposure to EA cells): 4.3-17.7 fold
increases in expression of proinflammatory (proatherogenic) genes ([1]; chronic TNFα exposure (6 days)): 6.8-75.8 fold
serum-stimulated tube formation ([2]; TNFα exposure greater than 3 days (up to 6 days) in 5% FBS, then plated on matrigel): cells no longer form tubes; also recorded: fail to form tubes

CC(=O)NC(C(=O)O)C(C)(C)SN=O (racemic) [SNAP, S-Nitroso-N-acetyl-D, L-penicillamine, reference compound]
PAI-1 protein expression (EA hy926 cells; [4]): reduces
VCAM-1 protein expression (EA hy926 cells; [4]): reduces
caveolin-1 protein expression (EA hy926 cells; [4]): reduces
tube formation / protection from TNFα-induced dysfunction ([2]; SNAP 200 μM co-incubated with TNFα 10 ng/mL for 6 days prior to plating on MATRIGEL): protects cells from TNFα induced dysfunction
